According to patent publication US4038278A, “4-Aminopyrimidium derivatives and preparation thereof” (Eisai Co., Ltd., priority 1974, dated 1977):
Where two headings read alike, the source gives them in different places.

Legend:
[1] = tested on: Carrageenin edema of the hind paw of the rat; experiment: Anti-edematic effect, Carrageenin paw edema method, oral, in rats; type: in vivo, rat (Wistar strain); conditions: for Anti-edematic ratio (%) / Comparison with Control Compound (anti-edematic ratio): 100 mg/kg p.o.; for Anti-edematic ratio (%): rats, 3 hours after Carrageenin; for Comparison with Control Compound (anti-edematic ratio): Control compound (Aspirin) = 100
Protocol: Test animal: For the respective compounds, four male rats of the Wistar strain weighing approximately 150g were used. The test animals were made to fast for approximately 16 hours.
The anti-edematic test is carried out by determining the increase of edema due to the injection of […], in accordance with the paw edema method. [see Winter. C. A. et al; Proc. Soc. exp.
The test compounds were respectively suspended in five percent of aqueous solution of gum Arabic, and the suspensions were orally administered to the rats one hour before the injection of the Carrageenin. Activities were determined by measuring the volume of the hind paw of the rat three hours after the administration of the Carrageenin.

stomach mucosa = experiment: Degree of gastric trouble (visible observation of stomach mucosa); type: in vivo, rat (Wistar strain); conditions: for Degree of gastric trouble: 100 mg/kg p.o., sum of scores (0-3) of 4 rats
Description: 2. Degree of gastric trouble
The rats used in above test of anti-edematic effects were slaughtered, and their stomaches were visibly observed in accordance with the under-mentioned bases. Measurement values were decided by summing up the respective data of 4 tests of each group.
Visible observation of the stomach mucosa
No abnormality is recognized
Slight edema, congestion or slight erosion
Scattered or limitted erosion and spotted
Heavy erosion, linear bleeding or enlarged

[2] = tested on: acetic acid Writhing syndrome; experiment: Anti-acetic acid Writhing test, oral, in mice; type: in vivo, mouse (dd strain); conditions: Mus musculus, po, read-out: ED50 (anti-acetic acid Writhing)
Protocol: Comparative tests for anti-acetic acid Writhing activity in mice were made to the Compound A of the present invention and 4-amino-pyrimidine-N^1 -phenacylbromide (hereinafter referred to as Compound C), using Aspirin as a control compound. The test compounds were respectively suspended in an of aqueous solution of containing five percent of gum Arabic. Eight male mice of dd strain weighing approximately 20 - 23g were used as the test animals. The mice were made to fast for about 19 hours.
After 50 minutes or 170 minutes of administration of the test compounds, 0.1 ml of 0.7% acetic acid solution per 10 g. of the body weight of the test animal was injected intraperitoneally. Regarding the expansion of the hind paw of the mice induced during 15 minutes after the injection, a number of Writhing syndromes were encountered and recorded. Effects of the respective test compounds against the usual behavior of the mice were also observed. In the above test, 5% gum arabic solution per se was administered to the control animal.
Various doses of the respective compounds were orally administered to eight mice. After 1 or 3 hours of the administration, a anti-acetic acid Writhing test was carried out.

SMILES | Anti-edematic ratio (%) [1] | Comparison with Control Compound (anti-edematic ratio) [1] | Degree of gastric trouble (stomach mucosa) | ED50 ([2]; 1 h) | ED50 ([2]; 3 h) | anti-edematic / anti-inflammatory effect in words ([1]; 100 mg/Kg p.o.) | degree of gastric trouble in words (stomach mucosa; 100 mg/Kg p.o.)
CC(=O)Oc1ccccc1C(=O)O [Aspirin, reference compound] | 35.8% | 100 | 12 | 410 mg/kg | 253 mg/kg |  | 
Cc1cccc(C(=O)C[n+]2ccc(N)nc2)c1 [Compound B, 4-aminopyrimidine N^1-(m-methylphenacyl)bromide] | 35.3% | 99 | 6 |  |  | equal to, or more than that of the Control compound | extremely less than that of the Control compound
